Drawing on patent US7932262B2 (Novartis AG, priority 2006, dated 2011), this text covers IC50 and EC50 for 13 compounds.

One experiment has as its target T1, PDK1 kinase (Homo sapiens, UniProt O15530).
T1 sequence (O15530 1-556): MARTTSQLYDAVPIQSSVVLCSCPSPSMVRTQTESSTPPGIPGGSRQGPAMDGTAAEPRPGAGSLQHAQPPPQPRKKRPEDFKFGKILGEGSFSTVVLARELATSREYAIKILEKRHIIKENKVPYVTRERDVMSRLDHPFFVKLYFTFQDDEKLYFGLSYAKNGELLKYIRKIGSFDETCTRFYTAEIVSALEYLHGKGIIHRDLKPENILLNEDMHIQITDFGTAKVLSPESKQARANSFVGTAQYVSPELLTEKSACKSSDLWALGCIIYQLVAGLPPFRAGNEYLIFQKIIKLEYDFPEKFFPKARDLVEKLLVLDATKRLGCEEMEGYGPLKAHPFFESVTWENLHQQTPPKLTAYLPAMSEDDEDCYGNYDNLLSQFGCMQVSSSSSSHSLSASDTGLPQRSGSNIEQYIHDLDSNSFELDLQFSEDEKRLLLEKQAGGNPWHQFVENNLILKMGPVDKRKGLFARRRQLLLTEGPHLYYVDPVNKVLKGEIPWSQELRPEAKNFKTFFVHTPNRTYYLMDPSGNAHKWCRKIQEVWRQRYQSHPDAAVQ
Kind of experiment: PDK1 Kinase Alpha Screen Assay. In kind it is biochemical. Particulars: PDK1 Kinase Alpha Screen Assay; read-out: PDK1 IC50. The procedure, abridged: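 PDK1, 10 uM ATP, 50 nM biotin-PDK1-4 peptide; 50 mM Tris pH 7.5, 10 mM MgCl2, 0.1% BSA, 0.01% Tween-20, 2 mM DTT, 2.5% DMSO; 3-18 h. EDTA stop; AlphaScreen, phospho-Ser/Thr antibody, overnight RT.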

In a further experiment the test system is PC-3 cells. Kind of experiment: Cell Proliferation Assay (Cell Titer Glo), PC-3 cell line. The experiment is classed as cell-based. To be noted: Homo sapiens, PC-3, Cell Proliferation Assay, PC3; read-out: CPEC50 PC3. The procedure, abridged:
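Cell Titer Glo luminescence, read after fresh medium replaced the dosing medium, gave viability of PC-3 cells plated at 1000 cells/well. Compounds, 1:3 serially diluted in DMSO at 500× and then in medium, were added after 3-5 h adhesion and incubated 3 days at 37° C.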
For orientation: Cellular ATP, detected with luciferase, serves as a proxy for viable cell number.

Structures are written as SMILES.

Usually IC50 stands for the point on the concentration scale where inhibition reaches its midpoint. Regarding `CN1CCN(c2ccc(-c3cccc4cnc(Nc5ccc(N6CCOCC6)c(Cl)c5)nc34)cn2)CC1` [Compound 466, N-(3-chloro-4-morpholinophenyl)-8-(6-(4-methylpiperazin-1-yl)pyridin-3-yl)quinazolin-2-amine], at PDK1 kinase, the IC50 was less than 5 µM. The EC50 with PC-3 cells was less than 5 µM.
As to `CN1CCN(c2ccc(-c3cccc4cnc(Nc5cc(C(=O)O)cc(C(F)(F)F)c5)nc34)cn2)CC1` [Compound 467, 3-(8-(6-(4-methylpiperazin-1-yl)pyridin-3-yl)quinazolin-2-ylamino)-5-(trifluoromethyl)benzoic acid], at PDK1 kinase, the IC50 was less than 5 µM. The EC50 in the experiment with PC-3 cells was less than 5 µM.
As for `CN1CCN(c2ccc(-c3cccc4cnc(Nc5cc(C(=O)N6CCCC6)cc(C(F)(F)F)c5)nc34)cn2)CC1` [Compound 468, (3-(8-(6-(4-methylpiperazin-1-yl)pyridin-3-yl)quinazolin-2-ylamino)-5-(trifluoromethyl)phenyl)(pyrrolidin-1-yl)methanone], on PDK1 kinase, the IC50 was in the range of 5 to 10 µM. Besides, in the experiment with PC-3 cells, the EC50 is less than 5 µM.
Take `C#Cc1ccc(OC2CCNCC2)c2nc(Nc3ccc(S(N)(=O)=O)cc3)ncc12` [Compound 469, 4-(5-ethynyl-8-(piperidin-4-yloxy)quinazolin-2-ylamino)benzenesulfonamide]: the 50% inhibitory concentration (IC50) on PDK1 kinase was less than 5 µM. The EC50 with PC-3 cells was 5 to 10 µM.
Taken in the same sequence, the figures for `c1cc(OC2CCNCC2)c2nc(Nc3ccc(N4CCOCC4)nc3)ncc2c1` [Compound 470, N-(6-morpholinopyridin-3-yl)-8-(piperidin-4-yloxy)quinazolin-2-amine] were less than 5 µM and less than 5 µM.
Taken in the same sequence, the figures for `Clc1cc(Nc2ncc3cccc(OC4CCNCC4)c3n2)ccc1N1CCOCC1` [Compound 471, N-(3-chloro-4-morpholinophenyl)-8-(piperidin-4-yloxy)quinazolin-2-amine] were less than 5 µM and less than 5 µM.
On the same counts, the results for `O=C(O)c1cc(Nc2ncc3cccc(OC4CCNCC4)c3n2)ccc1F` [Compound 472, 2-fluoro-5-(8-(piperidin-4-yloxy)quinazolin-2-ylamino)benzoic acid] are less than 5 µM and 5 to 10 µM.
`CN(C)C(=O)c1cc(Nc2ncc3cccc(OC4CCNCC4)c3n2)ccc1F` [Compound 473, 2-fluoro-N,N-dimethyl-5-(8-(piperidin-4-yloxy)quinazolin-2-ylamino)benzamide]: on PDK1 kinase, the IC50 was less than 5 µM. Besides, the EC50 in the experiment with PC-3 cells is less than 5 µM.
Turning to `CC(C)NC(=O)c1cc(Nc2ncc3cccc(OC4CCNCC4)c3n2)ccc1F` [Compound 474, 2-fluoro-N-isopropyl-5-(8-(piperidin-4-yloxy)quinazolin-2-ylamino)benzamide], the IC50 on PDK1 kinase is less than 5 µM. Also, the EC50 in the experiment on PC-3 cells is less than 5 µM.
For `O=C(c1cc(Nc2ncc3cccc(OC4CCNCC4)c3n2)ccc1F)N1CCOCC1` [Compound 475, (2-fluoro-5-(8-(piperidin-4-yloxy)quinazolin-2-ylamino)phenyl)(morpholino)methanone], the IC50 at PDK1 kinase was less than 5 µM. The EC50 in the experiment with PC-3 cells was 5 to 10 µM.
Consider `O=C(NC1CCOCC1)c1cc(Nc2ncc3cccc(OC4CCNCC4)c3n2)ccc1F` [Compound 476, 2-fluoro-5-(8-(piperidin-4-yloxy)quinazolin-2-ylamino)-N-(tetrahydro-2H-pyran-4-yl)benzamide], for which the concentration for half-maximal inhibition (IC50) on PDK1 kinase was less than 5 µM. For the same compound, the EC50 in the experiment on PC-3 cells is less than 5 µM.
Turning to `O=C(c1ccc(Nc2ncc3cccc(OC4CCNCC4)c3n2)cc1F)N1CCCC1` [Compound 477, (2-fluoro-4-(8-(piperidin-4-yloxy)quinazolin-2-ylamino)phenyl)(pyrrolidin-1-yl)methanone], the IC50 at PDK1 kinase was less than 5 µM. In the experiment on PC-3 cells, the EC50 is less than 5 µM.
For the compound `CN1CCN(C(=O)c2ccc(Nc3ncc4cccc(OC5CCNCC5)c4n3)cc2F)CC1` [Compound 478, (2-fluoro-4-(8-(piperidin-4-yloxy)quinazolin-2-ylamino)phenyl)(4-methylpiperazin-1-yl)methanone], at PDK1 kinase, the IC50 is less than 5 µM. For the same compound, the EC50 in the experiment on PC-3 cells is less than 5 µM.
